pIC50: −log10 of the molar value. The source made the active and inactive calls. The rule behind the calls is not given here.
Columns and labels:
[1] = tested on: Plasmodium falciparum; assay: Antiparasitic activity against Plasmodium falciparum ring stage and schizont; type: functional, organism-based
[2] = tested on: MRC5; assay: Cytotoxicity against human MRC5 cells; type: cell-based
[3] = tested on: Trypanosoma brucei brucei; assay: Antiparasitic activity against Trypanosoma brucei brucei bloodstream form; type: functional, organism-based
[4] = target: T1, Metacaspase-2 (Trypanosoma brucei, UniProt Q8T8E7); assay: Inhibition of Trypanosoma brucei MAC2
T1 sequence (Q8T8E7 whole entry): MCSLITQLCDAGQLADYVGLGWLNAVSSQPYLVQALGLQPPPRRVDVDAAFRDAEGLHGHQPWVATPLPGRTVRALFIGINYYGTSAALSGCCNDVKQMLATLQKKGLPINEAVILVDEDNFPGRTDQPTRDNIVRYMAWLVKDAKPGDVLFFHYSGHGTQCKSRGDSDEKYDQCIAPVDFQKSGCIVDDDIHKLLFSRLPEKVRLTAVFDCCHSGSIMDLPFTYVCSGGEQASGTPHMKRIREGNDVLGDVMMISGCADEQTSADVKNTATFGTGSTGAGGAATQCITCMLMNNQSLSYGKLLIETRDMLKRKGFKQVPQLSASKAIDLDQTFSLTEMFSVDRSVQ

[5] = tested on: Trypanosoma cruzi; assay: Antiparasitic activity against Trypanosoma cruzi amastigotes; type: functional, organism-based
[6] = tested on: Leishmania infantum; assay: Antiparasitic activity against Leishmania infantum amastigotes; type: functional, organism-based
[7] = target: T2, Metacaspase-3 (Trypanosoma brucei) (UniProt Q8T8E6); assay: Inhibition of Trypanosoma brucei MAC3
T2 sequence (whole entry): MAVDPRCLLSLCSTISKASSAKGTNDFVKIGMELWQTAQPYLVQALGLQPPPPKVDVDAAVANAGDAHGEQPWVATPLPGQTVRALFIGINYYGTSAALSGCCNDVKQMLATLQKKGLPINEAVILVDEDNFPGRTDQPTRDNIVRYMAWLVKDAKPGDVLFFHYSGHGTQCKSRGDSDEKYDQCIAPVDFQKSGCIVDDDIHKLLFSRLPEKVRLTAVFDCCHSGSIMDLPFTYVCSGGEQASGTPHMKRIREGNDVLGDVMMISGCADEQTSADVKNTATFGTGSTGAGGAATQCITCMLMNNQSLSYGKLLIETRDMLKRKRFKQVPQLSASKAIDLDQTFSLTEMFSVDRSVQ

[8] = target: T3, Caspase-3 (Homo sapiens) (UniProt P42574); assay: Inhibition of human caspase 3
T3 sequence (whole entry): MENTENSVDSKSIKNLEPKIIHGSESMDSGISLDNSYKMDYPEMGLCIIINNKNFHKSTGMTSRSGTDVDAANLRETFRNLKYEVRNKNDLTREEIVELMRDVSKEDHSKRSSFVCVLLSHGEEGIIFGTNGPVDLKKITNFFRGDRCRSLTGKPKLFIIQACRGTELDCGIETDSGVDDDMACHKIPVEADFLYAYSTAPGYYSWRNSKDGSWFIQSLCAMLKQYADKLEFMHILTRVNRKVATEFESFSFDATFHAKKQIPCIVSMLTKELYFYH

Row | SMILES | pIC50 [1] | pIC50 [2] | pIC50 [3] | pIC50 [4] | pIC50 [5] | pIC50 [6] | inhibition [7] | inhibition [8]
1 | NC(N)=NCCCC[C@H](NC(=O)OCc1ccccc1)C(=O)c1nc2ccccc2s1 | 5.25 | 4.72 | 4.94 | 5.40 | 5.26 | 4.34 | – | –
2 | N=C(N)NCCC[C@H](NC(=O)OCc1ccccc1)C(=O)c1ccccn1 | < 4.19 | < 4.19 | < 4.19 | 4.21 | < 4.19 | < 4.19 | Active | –
3 | CC(C)CC(NC(=O)OCc1ccccc1)C(=O)N[C@@H](CCCNC(=N)N)C(=O)c1nc2ccccc2s1 (some centres not stated) | 5.59 | 4.54 | 5.24 | 5.85 | 5.25 | 4.43 | – | –
4 | N#C[C@H](Cc1ccc(NC(=N)N)cc1)NC(=O)OCc1ccccc1 | 4.60 | < 4.19 | < 4.19 | < 4.00 | 4.57 | < 4.19 | – | –
5 | N#CCN(CCCCn1ccnc1)C(=O)OCc1ccccc1 | 4.76 | < 4.19 | < 4.19 | < 4.00 | 4.45 | < 4.19 | – | –
6 | N#C[C@H](CCCNC(=N)N)NC(=O)OCc1ccccc1 | 4.30 | < 4.19 | < 4.19 | 5.72 | < 4.19 | < 4.19 | Active | inactive
7 | Cn1c(C(=O)[C@H](CCCNC(=N)N)NC(=O)OCc2ccccc2)nc2ccccc21 | 5.15 | < 4.19 | 4.49 | 4.42 | 4.55 | < 4.19 | Active | inactive
8 | N#CCN(C(=O)OCc1ccccc1)C1CCNCC1 | 4.55 | < 4.19 | 4.49 | < 4.00 | 4.46 | < 4.19 | – | –
9 | N#CCN(CCCCN1CCCC1)C(=O)OCc1ccccc1 | 4.69 | < 4.19 | 4.28 | < 4.00 | < 4.19 | < 4.19 | – | –
10 | N#CCN(CCCCN1CCN(c2ccc(F)cc2)CC1)C(=O)OCc1ccccc1 | < 4.19 | < 4.19 | 4.65 | < 4.00 | 5.15 | < 4.19 | – | –
11 | N#CCN(CCCCN1CCCCC1)C(=O)OCc1ccccc1 | 5.16 | < 4.19 | < 4.19 | < 4.00 | < 4.19 | < 4.19 | – | –
12 | N#CCN(CCCCO)C(=O)OCc1ccccc1 | < 4.19 | < 4.19 | < 4.19 | < 4.00 | < 4.19 | < 4.19 | – | –
13 | N#CCN(CCCCN1CCN(C(c2ccc(F)cc2)c2ccc(F)cc2)CC1)C(=O)OCc1ccccc1 | 5.12 | 4.95 | 5.68 | < 4.00 | 5.59 | 5.23 | – | –
14 | CC(C)C(NC(=O)OCc1ccccc1)C(=O)N[C@@H](CCCNC(=N)N)C(=O)c1nc2ccccc2s1 (some centres not stated) | 5.48 | 4.49 | 4.95 | 5.96 | 5.14 | < 4.19 | – | –
15 | N=C(N)NCCC[C@H](NC(=O)OCc1ccccc1)C(=O)c1nccs1 | 4.61 | < 4.19 | < 4.19 | 5.66 | 4.41 | < 4.19 | Active | –
16 | NCCCC[C@H](NC(=O)OCc1ccccc1)C(=O)c1nc2ccccc2s1 | 5.52 | 4.70 | 4.97 | 5.80 | 4.97 | 4.64 | – | –
17 | N=C(N)NCCC[C@@H](/C=C/S(=O)(=O)c1ccccc1)NC(=O)OCc1ccccc1 | 5.47 | < 4.19 | 4.34 | 5.41 | 4.72 | < 4.19 | – | –
18 | N=C(N)NCCC[C@H](NC(=O)OCc1ccccc1)C(=O)c1nc2ccccc2s1 | 5.10 | < 4.19 | 4.48 | 6.22 | 4.68 | < 4.19 | Active | inactive
19 | N#C[C@H](Cc1ccc(N)cc1)NC(=O)OCc1ccccc1 | 4.78 | < 4.19 | 4.52 | < 4.00 | 4.54 | < 4.19 | – | –

Source: ChEMBL document CHEMBL1155398, “Design and evaluation of Trypanosoma brucei metacaspase inhibitors” (Bioorg Med Chem Lett, 2010)
